Experimental data: US12435066B2, “Substituted tricyclic compounds” (LUPIN LIMITED, priority 2019, dated 2025)

Assays:
[1] = target: T1, hSOS1 mediated nucleotide exchange on hKRASG12C (Homo sapiens, UniProt Q07889); assay: biochemical
T1 sequence (Q07889 564-1049): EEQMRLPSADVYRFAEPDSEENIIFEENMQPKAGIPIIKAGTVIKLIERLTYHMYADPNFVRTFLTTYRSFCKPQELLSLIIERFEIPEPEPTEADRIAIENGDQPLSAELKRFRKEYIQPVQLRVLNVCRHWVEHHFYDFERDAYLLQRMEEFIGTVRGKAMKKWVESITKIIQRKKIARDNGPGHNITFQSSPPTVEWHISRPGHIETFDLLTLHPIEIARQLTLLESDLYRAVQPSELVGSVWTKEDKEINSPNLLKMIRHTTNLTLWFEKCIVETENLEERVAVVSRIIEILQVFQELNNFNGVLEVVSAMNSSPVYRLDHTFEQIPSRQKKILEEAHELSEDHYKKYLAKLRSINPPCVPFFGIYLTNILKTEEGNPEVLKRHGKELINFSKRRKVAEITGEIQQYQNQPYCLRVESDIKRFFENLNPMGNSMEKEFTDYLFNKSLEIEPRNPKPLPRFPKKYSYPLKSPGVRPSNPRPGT
Protocol: Example-127: Guanine Nucleotide Exchange Assay (GNEA)
GNEA assay was conducted to evaluate the effects of compounds on the nucleotide exchange on hKRASG12C mediated by hSOS1. Inhibitory effect of compounds on HIS-hSOS1, 564-1049aa mediated GTP loading onto GST-hKRASG12C, 1-169aa both expressed and purified in-house was assessed using HTRF detection technology in biochemical assay. Compounds were pre-incubated with hSOS1 working solution containing 10-50 nM hSOS1 and 200 nM EDA-GTP-DY-647P1 (Custom manufactured, Jena Biosciences) per well of a 384 well plate (Perkin Elmer, Cat #6007290) for 10 min at 20° C. in the assay buffer containing 10 mM HEPES, pH 7.4, 150 mM NaCl, 5 mM MgCl2, 1 mM DTT, 0.05% BSA fraction V and 0.0025% Igepal. Reaction was initiated by adding working solution of hKRASG12C containing 25-125 nM hKRASG12C and MAb Anti-GST-Tb (#61GSTTLA, Cisbio BioAssays) in assay buffer. Total assay volume was 15 μL. Reaction was continued for 30-60 min at 20° C. HTRF signal was recorded in PHERAStar microplate reader. Ratio of signal obtained at 665 nm and 620 nm was used to compute the percent inhibition of compound as follows.
Where, Positive control=hSOS1+EDA-GTP-DY-647P1+hKRASG12C+MAb Anti-GST-Tb Negative control=EDA-GTP-DY-647P1+hKRASG12C+MAb Anti-GST-Tb

hSOS1 and hKRASG12C = target: T2, hSOS1 and hKRASG12C (Homo sapiens, UniProt Q07889); assay: biochemical
T2 sequence (Q07889 564-1049): T1 sequence (Q07889 564-1049)
Protocol: Interaction assay was conducted to evaluate the ability of the compounds to disrupt the protein-protein interactions between hSOS1 and hKRASG12C. Inhibitory effect of compounds on GST-hSOS1, 564-1049aa expressed and purified in-house and HIS-hKRASG12C (R06-32DH, SignalChem) interaction was assessed using HTRF detection technology in biochemical assay. Compounds were pre-incubated with 10-50 nM working solution of hSOS1 per well of a 384 well plate (Perkin Elmer, Cat #6007290) for 10 min at 20° C. in the assay buffer containing 5 mM HEPES, pH 7.4, 150 mM NaCl, 10 mM EDTA, 1 mM DTT, 0.05% BSA fraction V and 0.0025% Igepal. Reaction was initiated by adding 100-300 nM working solution of hKRASG12C in assay buffer. Total assay volume was 15 μL. Reaction was continued for 30-60 min at 20° C. Then detection solution containing MAb Anti-GST-d2 (#61GSTDLA, Cisbio BioAssays) and MAb Anti-HIS-Tb (#61HISTLA, Cisbio BioAssays), all prepared in HTRF detection buffer (#61DB10RDF, Cisbio BioAssays) was added and further incubated for 30-60 min at 20° C. HTRF signal was recorded in PHERAStar microplate reader. Ratio of signal obtained at 665 nm and 620 nm was used to compute the percent inhibition of compound utilizing the following formula:
Positive control=hSOS1+hKRASG12C+MAb Anti-GST-d2+Mab Anti-HIS-Tb Negative control=hKRASG12C+MAb Anti-GST-d2+MAb Anti-HIS-Tb

pERK in DLD1 cells = assay: ERK phosphorylation assay after EGF stimulation; assay type: cell-based; conditions: Homo sapiens, DLD-1, compound 2 h, 200 ng/ml hEGF 5 minutes, alphascreen pERK, read-out: ERK phosphorylation inhibition IC50
Summary of the method: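 DLD1 cells pretreated 2 h with compound, then stimulated 5 minutes with 200 ng/ml hEGF. Lysates assayed for ERK1/2 p-T202/Y204 by AlphaScreen SureFire, read after 2 h at 25-28° C.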

DLD-1 cell line = assay: Colony formation assay (single agent activity); assay type: cell-based; conditions: Homo sapiens, 168 h, 7 days of drug treatment, crystal violet
Protocol: Example-129: Colony Formation Assay Protocol (Single Agent Activity)
DLD-1/MIA PaCa-2 cells were seeded at a density of 300/500 cells per well respectively in 48 well tissue culture plate and cells were allowed to settle overnight (16 to 20 h). On the following day, cells were treated with different concentrations of test or reference compound and the assay plates were incubated under standard cell culture conditions (37° C. with 5% CO2). After 7 days of drug treatment, media was removed from each well and plates were washed with PBS. Colonies were stained with crystal violet solution for 2-5 min. Plate was then washed carefully under tap water and air dried. For quantitation, 200 μL destaining solution containing 10% Glacial acetic acid was added to each well and crystal violet from the colonies was allowed to solubilize for 20-30 min on plate shaker. After solubilization, absorbance of the extracted stain was recorded in BioTek Synergy Neo II plate reader at 590 nm. Absorbance values were directly proportional to colony growth.

[2] = system: MIA PaCa-2 human pancreatic cancer xenograft; assay: Tumor growth inhibition in subchronic xenograft model; assay type: in vivo; conditions: MIA PaCa-2 xenograft in nude mice, 50 mg/kg b.i.d.
Protocol: In vivo efficacy of compound 87 was evaluated in MIA PaCa-2 human pancreatic cancer xenograft model in nude mice.
20×10^6 MIA PaCa-2 cells were injected subcutaneously in the presence of PBS and matrigel in 1:1 ratio in nude mice. The tumor-bearing mice were randomized once the tumors reached an average volume of approximately 154-159 mm^3 (Tumor volume range 107-248 mm^3). The mice were divided into the following groups (n=7-8/group): Vehicle control and compound 87 (50 mg/kg; b.i.d.).

COCC1CN(c2cc3c(N[C@H](C)c4cc(N)cc(C(F)(F)F)c4)nc(C)nc3c3c2CCC3)C1 [Compound 26, (R)—N-(1-(3-amino-5-(trifluoromethyl)phenyl)ethyl)-6-(3-(methoxymethyl)azetidin-1-yl)-2-methyl-8,9-dihydro-7H-cyclopenta[h]quinazolin-4-amine]
IC50 [1]: 31 to 70 nM | IC50 (hSOS1 and hKRASG12C): 1 to 10 nM | IC50 (pERK in DLD1 cells): 1 to 200 nM

Cc1nc(N[C@H](C)c2cccc(C(F)(F)CO)c2F)c2cc(N3CC4(COC4)C3)c3c(c2n1)CCC3 [Compound 23, (R)-2,2-difluoro-2-(2-fluoro-3-(1-((2-methyl-6-(2-oxa-6-azaspiro[3.3]heptan-6-yl)-8,9-dihydro-7H-cyclopenta[h]quinazolin-4-yl)amino)ethyl)phenyl)ethan-1-ol]
IC50 [1]: 1 to 30 nM | IC50 (hSOS1 and hKRASG12C): 1 to 10 nM | IC50 (pERK in DLD1 cells): 1 to 200 nM

Cc1nc(N[C@H](C)c2cc(N)cc(C(F)(F)F)c2)c2cc(N3CCC(C)(O)C3)c3c(c2n1)CCC3 (single isomer, unassigned) [Compound 55a]
IC50 [1]: 31 to 70 nM | IC50 (hSOS1 and hKRASG12C): 11 to 20 nM | IC50 (pERK in DLD1 cells): 1 to 200 nM

COCC1(O)CCN(c2cc3c(N[C@H](C)c4cccc(C(F)(F)C(C)(C)O)c4F)nc(C)nc3c3c2CCC3)CC1 [Compound 63, (R)-1-(4-((1-(3-(1,1-difluoro-2-hydroxy-2-methylpropyl)-2-fluorophenyl)ethyl)amino)-2-methyl-8,9-dihydro-7H-cyclopenta[h]quinazolin-6-yl)-4-(methoxymethyl)piperidin-4-ol]
IC50 [1]: 1 to 30 nM | IC50 (hSOS1 and hKRASG12C): 1 to 10 nM | IC50 (pERK in DLD1 cells): 1 to 200 nM

Cc1nc(N[C@H](C)c2cccc(C(F)(F)[C@](C)(O)CO)c2F)c2cc(N3CCOCC3)c3c(c2n1)CCC3 (racemic) [Compound 82a, (R/S)-3,3-difluoro-3-(2-fluoro-3-((R/S)-1-((2-methyl-6-morpholino-8,9-dihydro-7H-cyclopenta[h]quinazolin-4-yl)amino)ethyl)phenyl)-2-methylpropane-1,2-diol]
IC50 [1]: 1 to 30 nM | IC50 (hSOS1 and hKRASG12C): 1 to 10 nM | IC50 (DLD-1 cell line): 500 to 6000 nM | IC50 (pERK in DLD1 cells): 1 to 200 nM

Cc1nc(N[C@H](C)c2cc(N)cc(C(F)(F)F)c2)c2cc(N3CCN(C)C(=O)C3)c3c(c2n1)CCC3 [Compound 56, (R)-4-(4-((1-(3-amino-5-(trifluoromethyl)phenyl)ethyl)amino)-2-methyl-8,9-dihydro-7H-cyclopenta[h]quinazolin-6-yl)-1-methylpiperazin-2-one]
IC50 [1]: 1 to 30 nM | IC50 (hSOS1 and hKRASG12C): 1 to 10 nM | IC50 (pERK in DLD1 cells): 1 to 200 nM

Cc1nc(N[C@H](C)c2cccc(C(F)(F)C(C)(C)O)c2F)c2cc(N3CC[C@@](C)(O)C3)c3c(c2n1)CCC3 (single isomer, unassigned) [Compound 61a]
IC50 [1]: 1 to 30 nM | IC50 (hSOS1 and hKRASG12C): 1 to 10 nM | IC50 (pERK in DLD1 cells): 1 to 200 nM

Cc1nc(NC(C)c2cc(N)cc(C(F)F)c2)c2cc(N3CC4(COC4)C3)c3c(c2n1)CCC3 (racemic) [Compound 78, (R/S)—N-(1-(3-amino-5-(difluoromethyl)phenyl)ethyl)-2-methyl-6-(2-oxa-6-azaspiro[3.3]heptan-6-yl)-8,9-dihydro-7H-cyclopenta[h]quinazolin-4-amine]
IC50 [1]: 1 to 30 nM | IC50 (hSOS1 and hKRASG12C): 1 to 10 nM | IC50 (pERK in DLD1 cells): 1 to 200 nM

Cc1nc(N[C@H](C)c2cc(N)cc(C(F)F)c2)c2cc(N3CCOCC3)c3c(c2n1)CC(C)(C)O3 [Compound 115, (R)—N-(1-(3-amino-5-(difluoromethyl)phenyl)ethyl)-2,8,8-trimethyl-6-morpholino-8,9-dihydrofuro[2,3-h]quinazolin-4-amine]
IC50 [1]: 31 to 70 nM | IC50 (hSOS1 and hKRASG12C): 1 to 10 nM | IC50 (pERK in DLD1 cells): 1 to 200 nM

COc1cc2c(N[C@H](C)c3cccc(C(F)(F)CO)c3F)nc(C)nc2c2c1N(C)CCO2 [Compound 121, (R)-2,2-difluoro-2-(2-fluoro-3-(1-((6-methoxy-2,7-dimethyl-8,9-dihydro-7H-[1,4]oxazino[3,2-h]quinazolin-4-yl)amino)ethyl)phenyl)ethan-1-ol]
IC50 [1]: 1 to 30 nM | IC50 (hSOS1 and hKRASG12C): 1 to 10 nM | IC50 (pERK in DLD1 cells): 1 to 200 nM

Cc1nc(N[C@H](C)c2cccc(C(F)(F)CO)c2F)c2cc(N3CC[C@@H](O)C3)c3c(c2n1)CCC3 [Compound 30, (R)-1-(4-(((R)-1-(3-(1,1-difluoro-2-hydroxyethyl)-2-fluorophenyl)ethyl)amino)-2-methyl-8,9-dihydro-7H-cyclopenta[h]quinazolin-6-yl)pyrrolidin-3-ol]
IC50 [1]: 1 to 30 nM | IC50 (hSOS1 and hKRASG12C): 1 to 10 nM | IC50 (pERK in DLD1 cells): 1 to 200 nM

Cc1nc(N[C@H](C)c2cc(N)cc(C(F)(F)F)c2)c2cc(-c3ccc(=O)n(C)c3)c3c(c2n1)CCC3 [Compound 87, (R)-5-(4-((1-(3-amino-5-(trifluoromethyl)phenyl)ethyl)amino)-2-methyl-8,9-dihydro-7H-cyclopenta[h]quinazolin-6-yl)-1-methylpyridin-2(1H)-one]
IC50 [1]: 31 to 70 nM | % tumor growth inhibition [2]: more than 70% | IC50 (hSOS1 and hKRASG12C): 1 to 10 nM | IC50 (DLD-1 cell line): 500 to 6000 nM | IC50 (pERK in DLD1 cells): 1 to 200 nM

Cc1nc(N[C@H](C)c2cc(N)cc(C(F)(F)F)c2)c2cc(N3CC[C@](C)(O)C3)c3c(c2n1)CCC3 (single isomer, unassigned) [Compound 55b]
IC50 [1]: 71 to 130 nM | IC50 (hSOS1 and hKRASG12C): 11 to 20 nM | IC50 (pERK in DLD1 cells): 1 to 200 nM

Cc1nc(N[C@H](C)c2cccc(C(F)(F)CO)c2F)c2cc(N3CCOCC3)c3c(c2n1)CCC3 [Compound 75, (R)-2,2-difluoro-2-(2-fluoro-3-(1-((2-methyl-6-morpholino-8,9-dihydro-7H-cyclopenta[h]quinazolin-4-yl)amino)ethyl)phenyl)ethan-1-ol]
IC50 [1]: 1 to 30 nM | IC50 (hSOS1 and hKRASG12C): 1 to 10 nM | IC50 (pERK in DLD1 cells): 1 to 200 nM

Cc1nc(N[C@H](C)c2cc(N)cc(C(F)(F)F)c2)c2cc(N3CCC(C)(O)CC3)c3c(c2n1)CCC3 [Compound 50, (R)-1-(4-((1-(3-amino-5-(trifluoromethyl)phenyl)ethyl)amino)-2-methyl-8,9-dihydro-7H-cyclopenta[h]quinazolin-6-yl)-4-methylpiperidin-4-ol]
IC50 [1]: 1 to 30 nM | IC50 (hSOS1 and hKRASG12C): 1 to 10 nM | IC50 (pERK in DLD1 cells): 1 to 200 nM

Cc1nc(N[C@H](C)c2cccc(C(F)(F)C(C)(C)O)c2F)c2cc(N3CCC(O)(CO)CC3)c3c(c2n1)CCC3 [Compound 85, (R)-1-(4-((1-(3-(1,1-difluoro-2-hydroxy-2-methylpropyl)-2-fluorophenyl)ethyl)amino)-2-methyl-8,9-dihydro-7H-cyclopenta[h]quinazolin-6-yl)-4-(hydroxymethyl) piperidin-4-ol]
IC50 [1]: 1 to 30 nM | IC50 (hSOS1 and hKRASG12C): 1 to 10 nM | IC50 (pERK in DLD1 cells): 1 to 200 nM
